Measurements reported in patent US6448255B1, “Imidazo-isoquinolin-5-one derivatives, pyrimido-isoquinolin-6-one derivatives and imidazo-naphthyridin-5-one derivatives” (Wyeth, priority 2000, dated 2002).

How the values were obtained:
[1] = system: blood serum HDL cholesterol; experiment: determination of HDL cholesterol in serum of cholesterol/cholic acid-fed rats; assay type: in vivo, Male Sprague-Dawley rats; conditions: Dose 100 mg/kg/day mixed in diet, 8 days; rats fed chow with 0.25% cholic acid and 1.0% cholesterol; serum HDL cholesterol by FPLC
Experimental: The ability of the compounds of this invention to increase blood serum HDL levels was established by the following standard experimental procedure for determination of HDL cholesterol:
Male Sprague-Dawley rats weighing 200-225 g were housed two per cage and fed Purina Rodent Chow Special Mix 5001-S supplemented with 0.25% cholic acid and 1.0% cholesterol and water ad libitum for 8 days. Each test substance was administered to a group of six rats fed the same diet with the test diet mixed in as 0.005-0.1% of the total diet. Body weight and food consumption were recorded prior to diet administration and at termination. Typical doses of the test substances were 5-100 mg/kg/day.
At termination, blood was collected from anesthetized rats and the serum was separated by centrifugation. Total serum cholesterol was assayed using the Sigma Diagnostics enzymatic kit for the determination of cholesterol, Procedure No. 352, modified for use with ninety-six well microtiter plates. After reconstitution with water the reagent contains 300 U/I cholesterol oxidase, 100 U/I cholesterol esterase, 1000 U/I horse radish peroxidase, 0.3 mmoles/l 4-aminoantipyrine and 30.0 mmoles/l p-hydroxybenzenesulfonate in a pH 6.5 buffer. In the reaction cholesterol was oxidized to produce hydrogen peroxide which was used to form a quinoneimine dye. The concentration of dye formed was measured spectrophotometrically by absorbency at 490 nm after incubation at 25° C. for 30 minutes. The concentration of cholesterol was determined for each serum sample relative to a commercial standard from Sigma.
HDL cholesterol concentrations in serum were determined by separation of lipoprotein classes by fast protein liquid chromatography (FPLC) by a modification of the method of Kieft et al., J. Lipid Res., 32 (1991) 859-866. 25 ul of serum was injected onto Superose 12 and Superose 6 (Pharmacia), in series, with a column buffer of 0.05 M Tris (2-amino-2-hydroxymethyl-1,3-propanediol) and 0.15 M sodium chloride at a flow rate of 0.5 ml/min. The eluted sample was mixed on line with Boehringer-Mannheim cholesterol reagent pumped at […]. The combined eluents were mixed and incubated on line through a knitted coil (Applied Biosciences) maintained at a temperature of 45 C. The eluent was monitored by measuring absorbence at 490 nm and gave a continuous absorbence signal proportional to the cholesterol concentration. The relative concentration of each lipoprotein class was calculated as the percent of total absorbence. HDL cholesterol concentration, in serum, was calculated as the percent of total cholesterol as determined by FPLC multiplied by the total serum cholesterol concentration.

Structure (SMILES) | melting point | HDL Cholesterol Level Increase (%) [1]
O=C1c2ccccc2C(O)(c2ccc(Cl)cc2)C2=NCCN12 (stereo not drawn) [Example 11, 10-(4-Chlorophenyl)-10-hydroxy-2,10-dihydroimidazo[1,2-b]isoquinolin-5(3H)-one] | 235 to 237 °C | –
CC1(C)CN2C(=O)c3ccccc3C(O)(c3ccccc3)C2=N1 (stereo not drawn) [Example 1, 10-Hydroxy-2,2-dimethyl-10-phenyl-2,10-dihydroimidazo[1,2-b]isoquinolin-5(3H)-one] | 186 to 188 °C | 55%
C[C@H]1CN2C(=O)c3ccccc3[C@@](O)(c3ccc(F)cc3)C2=N1 [Example 6, (2S,10S)-10-(4-Fluorophenyl)-10-hydroxy-2-methyl-2,10-dihydrolmidazo[1,2-b]isoquinolin-5(3H)-one] | – | 38%
O=C1c2ccccc2C(O)(c2ccc(F)cc2)C2=NC3CCCCC3N12 (stereo not drawn) [Example 4, 6-(4-Fluorophenyl)-6-hydroxy-1,3,4,4a,6,12a-hexahydrobenzimidazo[1,2-b]isoquinolin-11(2H)-one] | 203 to 205 °C | 21%
CC1(C)CN2C(=O)c3ccccc3C(O)(c3ccc(F)cc3)C2=N1 (stereo not drawn) [Example 3, 10-(4-Fluorophenyl)-10-hydroxy-2,2-dimethyl-2,10-dihydroimidazo[1,2-b]isoquinolin-5(3H)-one] | 168 to 170 °C | 90%
O=C1c2ccccc2C(O)(c2ccc(Br)cc2)C2=NCCN12 (stereo not drawn) [Example 13, 10-(4-Bromophenyl)-10-hydroxy-2,10-dihydroimidazo[1,2-b]isoquinolin-5(3H)-one] | 212 to 215 °C | –
O=C1c2ccccc2C(O)(c2ccc(Cl)cc2)C2=NCCCN12 (stereo not drawn) [Example 8, 11-(4-Chlorophenyl)-11-hydroxy-2,3,4,11-tetrahydro-6H-pyrimido[1,2-b]isoquinolin-6-one] | 128 to 130 °C | –
CC1(C)CN2C(=O)c3ccccc3C(O)(c3ccc(Cl)cc3)C2=N1 (stereo not drawn) [Example 10, 10-(4-Chlorophenyl)-10-hydroxy-2,2-dimethyl-2,10-dihydroimidazo[1,2-b]isoquinolin-5(3H)-one] | 181 to 183 °C | –
CC1(C)CN2C(=O)c3ncccc3C(O)(c3ccc(Cl)cc3)C2=N1 (stereo not drawn) [Example 7, 10-(4-Chlorophenyl)-10-hydroxy-2,2-dimethyl-2,10-dihydroimidazo[2,1-g][1,7]naphthyridin-5(3H)-one] | 257 to 260 °C | 49%
C[C@@H]1CN2C(=O)c3ccccc3[C@@](O)(c3ccc(F)cc3)C2=N1 [Example 5, (2R, 10S)-10-(4-Fluorophenyl)-10-hydroxy-2-methyl-2,10-dihydroimidazo[1,2-b]isoquinolin-5(3H)-one] | 229 to 232 °C | 105%
O=C1c2ccccc2C(O)(c2ccccc2)C2=NCCN12 (stereo not drawn) [Example 12, 10-Hydroxy-10-phenyl-2,10-dihydroimidazo[1,2-b]isoquinolin-5(3H)-one] | 263 to 265 °C | –
O=C1c2ccccc2C(O)(c2ccc(F)cc2)C2=NCCCN12 (stereo not drawn) [Example 2, 11-(4-Fluorophenyl)-11-hydroxy-2,3,4,11-tetrahydro-6H-pyrimido[1,2-b]isoquinolin-6-one] | 126 to 128 °C | 22%
